Experimental data taken from patent US10471050B2, “2-OXO-1,2-dihydropyridine-3,5-dicarboxamide compounds as bromodomain inhibitors” (GlaxoSmithKline Intellectual Property (No. 2) Limited, priority 2015, dated 2019).

Each compound was assayed against T1, BRD4 BD2 (Homo sapiens, UniProt O60885, Y97A) (assay: BRD4 BD2 TR-FRET competition assay). Conditions: average of N recorded values, read-out: BRD4 BD2 IC50 (average value) (converted).
T1 construct: BRD4 (1-477) (Y97A) and (Y390A); made in house; host or cells: E. coli (pET15b vector)
Assay type: binding
Experimental: Bromodomain binding was assessed utilising a time resolved fluorescent resonance energy transfer (TR-FRET) competition assay. To enable this approach a known, high affinity, pan-BET interacting small molecule was labelled with Alexa Fluor® 647, which is a far-red-fluorescent dye (Reference Compound X). Reference Compound X acts as a reporter of bromodomain binding and is the acceptor fluorophore component of the TR-FRET pair. Europium chelate, conjugated to an anti-6*His antibody, was utilised as the donor fluorophore in the TR-FRET pair. […] A TR-FRET signal is generated when the donor and acceptor fluorophores are in close proximity, between 20-80 Å, which is enabled in this assay by binding of Reference Compound X to the bromodomain protein.
In order to generate a TR-FRET signal, donor fluorophore is excited by a laser at λ337 nm, which subsequently leads to emission at λ618 nm. If the acceptor fluorophore is in close proximity then energy transfer can occur, which leads to emission of Alexa Fluor® 647 at λ665 nm. In the presence of competitor compound, Reference Compound X can be displaced from binding to the bromodomain. If displacement occurs, the acceptor fluorophore is no longer in proximity to the donor fluorophore, which prevents fluorescent energy transfer and, subsequently, a loss of Alexa Fluor® 647 emission at λ665 nm.
The competition of the compounds of formula (I) with Reference Compound X for binding to the BET family (BRD2, BRD3, BRD4 and BRDT) was assessed using protein truncates spanning both bromodomain 1 (BD1) and bromodomain 2 (BD2). In order to monitor differential binding to either BD1 or BD2, single residue mutations of key tyrosines to alanine were made in the acetyl lysine binding pockets. To validate this approach, a double residue mutant tandem domain protein was produced for each of the BET family members. Utilising a Fluorescence Polarisation approach, binding affinities for each of the single and double mutants for Reference Compound X were determined.
Final purification was completed by Superdex 200 prep grade size exclusion column. Purified protein was stored at −80° C. in 20 mM HEPES pH 7.5 and 100 mM NaCl.
All assay components were dissolved in an assay buffer composing of 50 mM HEPES pH7.4, 50 mM NaCl, 5% Glycerol, 1 mM DTT and 1 mM CHAPS. Reference Compound X was diluted, in assay buffer containing 20 nM single mutant, tandem bromodomain protein, to a concentration equivalent to 2*Kd for this bromodomain. The solution containing bromodomain and Reference Compound X was added to dose response dilutions of test compound or DMSO vehicle (a maximum of 0.5% DMSO is used in this assay) in Greiner 384 well black low volume microtitre plates and subsequently incubated for 30 minutes at room temperature. An equal volume of 3 nM of anti-6*His Europium chelate was added to all wells, followed by a further 30 minute incubation at room temperature. TR-FRET was detected using a Perkin Elmer Multimode plate reader, by exciting the donor fluorophore at λ337 nm and subsequently, after a delay of 50 μsecs, measuring emission of the donor and acceptor fluorophores at λ615 nm and λ665 nm, respectively. In order to control these assays, 16 replicates each of uninhibited (DMSO vehicle) and inhibited (10*IC50 concentrations of Example 11 of WO 2011/054846A1) TR-FRET assays were included on every microtitre plate.
cA four parameter curve fit of the following form was then applied: y=a+((b−a)/(1+(10^x/10^c)^d)
Where ‘a’ is the minimum, ‘b’ is the Hill slope, ‘c’ is the pIC50 and ‘d’ is the maximum.
Work on CCCNC(=O)c1cc(C(=O)NC)c(=O)n(Cc2ccccc2)c1 [Example 2, 1-Benzyl-N^3-methyl-2-oxo-N^5-propyl-1,2-dihydropyridine-3,5-dicarboxamide] yielded an IC50 of 126 nM. CNC(=O)c1cc(C(=O)NCCCc2ncc[nH]2)cn(Cc2ccccc2)c1=O [Example 11, N^5-(3-(1H-Imidazol-2-yl)propyl)-1-benzyl-N^3-methyl-2-oxo-1,2-dihydropyridine-3,5-dicarboxamide] showed an IC50 of 63.1 nM. Work on CNC(=O)c1cc(C(=O)NCCc2cn[nH]c2)cn(Cc2cccc(C)c2)c1=O [Example 13, N^5-(2-(1H-Pyrazol-4-yl)ethyl)-N^3-methyl-1-(3-methylbenzyl)-2-oxo-1,2-dihydropyridine-3,5-dicarboxamide] yielded an IC50 of 100 nM. In the case of CCNC(=O)c1cc(C(=O)NC)c(=O)n(Cc2cccc(OCCO)c2)c1 [Example 20, N^5-Ethyl-1-(3-(2-hydroxyethoxy)benzyl)-N^3-methyl-2-oxo-1,2-dihydropyridine-3,5-dicarboxamide], the IC50 is reported as 251 nM. With CCNC(=O)c1cc(C(=O)NC)c(=O)n(Cc2cccc3[nH]ccc23)c1 [Example 25, 1-((1H-Indol-4-yl)methyl)-N^5-ethyl-N^3-methyl-2-oxo-1,2-dihydropyridine-3,5-dicarboxamide] the IC50 was 25.1 nM.

Same assay, conditions: single mutant tandem BRD4, read-out: pIC50 in the BRD4 BD2 assay (converted)
With CCCNC(=O)c1cc(C(=O)NC)c(=O)n(Cc2ccccc2)c1 [Example 2, 1-Benzyl-N^3-methyl-2-oxo-N^5-propyl-1,2-dihydropyridine-3,5-dicarboxamide] the IC50 was 100 to 1000 nM. CCCCNC(=O)c1cc(C(=O)NC)c(=O)n(Cc2ccccc2)c1 [Example 3, 1-Benzyl-N^5-butyl-N^3-methyl-2-oxo-1,2-dihydropyridine-3,5-dicarboxamide] showed an IC50 of 100 to 1000 nM. With CNC(=O)CCCNC(=O)c1cc(C(=O)NC)c(=O)n(Cc2ccccc2)c1 [Example 5, 1-Benzyl-N^3-methyl-N^5-(4-(methylamino)-4-oxobutyl)-2-oxo-1,2-dihydropyridine-3,5-dicarboxamide] the IC50 was 100 to 1000 nM. Compound CNC(=O)c1cc(C(=O)NCCCNC(=O)OC(C)(C)C)cn(Cc2ccccc2)c1=O [Example 6, tert-Butyl (3-(1-benzyl-5-(methylcarbamoyl)-6-oxo-1,6-dihydropyridine-3-carboxamido)propyl)carbamate] has an IC50 of 100 to 1000 nM. CNC(=O)c1cc(C(=O)NCCC(F)(F)F)cn(Cc2ccccc2)c1=O [Example 7, 1-Benzyl-N^3-methyl-2-oxo-N^5-(3,3,3-trifluoropropyl)-1,2-dihydropyridine-3,5-dicarboxamide] was tested, and the IC50 was 100 to 1000 nM. Compound CNC(=O)c1cc(C(=O)NCCc2cnc[nH]2)cn(Cc2ccccc2)c1=O [Example 8, N^5-(2-(1H-Imidazol-5-yl)ethyl)-1-benzyl-N^3-methyl-2-oxo-1,2-dihydropyridine-3,5-dicarboxamide] has an IC50 of 100 to 1000 nM. CNC(=O)c1cc(C(=O)NCCCC(=O)OC)cn(Cc2ccccc2)c1=O [Example 9, Methyl 4-(1-benzyl-5-(methylcarbamoyl)-6-oxo-1,6-dihydropyridine-3-carboxamido)butanoate] showed an IC50 of 100 to 1000 nM. Work on CNC(=O)c1cc(C(=O)NCCc2ccccn2)cn(Cc2ccccc2)c1=O [Example 10, 1-Benzyl-N^3-methyl-2-oxo-N^5-(2-(pyridin-2-yl)ethyl)-1,2-dihydropyridine-3,5-dicarboxamide] yielded an IC50 of 100 to 1000 nM. For CNC(=O)c1cc(C(=O)NCCCc2ncc[nH]2)cn(Cc2ccccc2)c1=O [Example 11, N^5-(3-(1H-Imidazol-2-yl)propyl)-1-benzyl-N^3-methyl-2-oxo-1,2-dihydropyridine-3,5-dicarboxamide], the IC50 was ≤ 100 nM. With CNC(=O)c1cc(C(=O)NCCc2cn[nH]c2)cn(Cc2ccccc2)c1=O [Example 12, N^5-(2-(1H-Pyrazol-4-yl)ethyl)-1-benzyl-N^3-methyl-2-oxo-1,2-dihydropyridine-3,5-dicarboxamide] the IC50 was ≤ 100 nM. CNC(=O)c1cc(C(=O)NCCc2cn[nH]c2)cn(Cc2cccc(C)c2)c1=O [Example 13, N^5-(2-(1H-Pyrazol-4-yl)ethyl)-N^3-methyl-1-(3-methylbenzyl)-2-oxo-1,2-dihydropyridine-3,5-dicarboxamide] was tested, and the IC50 was ≤ 100 nM. CCNC(=O)c1cc(C(=O)NC)c(=O)n(Cc2cccc(C)c2)c1 [Example 14, N^5-Ethyl-N^3-methyl-1-(3-methylbenzyl)-2-oxo-1,2-dihydropyridine-3,5-dicarboxamide] gave an IC50 of 100 to 1000 nM. CNC(=O)c1cc(C(=O)NCCc2cn[nH]c2)cn([C@H](C)c2ccccc2)c1=O [Example 15, (R)-N^5-(2-(1H-Pyrazol-4-yl)ethyl)-N^3-methyl-2-oxo-1-(1-phenylethyl)-1,2-dihydropyridine-3,5-dicarboxamide] was tested, and the IC50 was ≤ 100 nM. CCNC(=O)c1cc(C(=O)NC)c(=O)n([C@H](C)c2ccccc2)c1 [Example 16, (R)-N^5-Ethyl-N^3-methyl-2-oxo-1-(1-phenylethyl)-1,2-dihydropyridine-3,5-dicarboxamide] was tested, and the IC50 was 100 to 1000 nM. Work on CNC(=O)c1cc(C(=O)NCCc2cn[nH]c2)cn(Cc2cccc(OC)c2)c1=O [Example 17, N^5-(2-(1H-pyrazol-4-yl)ethyl)-1-(3-methoxybenzyl)-N^3-methyl-2-oxo-1,2-dihydropyridine-3,5-dicarboxamide] yielded an IC50 of 100 to 1000 nM. Work on CCNC(=O)c1cc(C(=O)NC)c(=O)n(Cc2cccc(OC)c2)c1 [Example 18, N^5-ethyl-1-(3-methoxybenzyl)-N^3-methyl-2-oxo-1,2-dihydropyridine-3,5-dicarboxamide] yielded an IC50 of 100 to 1000 nM. In the case of CNC(=O)c1cc(C(=O)NCCc2c[nH]cn2)cn(Cc2cccc(OCCO)c2)c1=O [Example 19, N^5-(2-(1H-imidazol-4-yl)ethyl)-1-(3-(2-hydroxyethoxy)benzyl)-N^3-methyl-2-oxo-1,2-dihydropyridine-3,5-dicarboxamide], the IC50 is reported as 100 to 1000 nM. CCNC(=O)c1cc(C(=O)NC)c(=O)n(Cc2cccc(OCCO)c2)c1 [Example 20, N^5-Ethyl-1-(3-(2-hydroxyethoxy)benzyl)-N^3-methyl-2-oxo-1,2-dihydropyridine-3,5-dicarboxamide] was tested, and the IC50 was 100 to 1000 nM. In the case of CNC(=O)c1cc(C(=O)NCCc2cn[nH]c2)cn(Cc2cccc(OCCO)c2)c1=O [Example 21, N^5-(2-(1H-pyrazol-4-yl)ethyl)-1-(3-(2-hydroxyethoxy)benzyl)-N^3-methyl-2-oxo-1,2-dihydropyridine-3,5-dicarboxamide], the IC50 is reported as 100 to 1000 nM. CCNC(=O)c1cc(C(=O)NC)c(=O)n(Cc2cccc(C)c2F)c1 [Example 22, N^5-Ethyl-1-(2-fluoro-3-methylbenzyl)-N^3-methyl-2-oxo-1,2-dihydropyridine-3,5-dicarboxamide] was tested, and the IC50 was 100 to 1000 nM. Work on CNC(=O)c1cc(C(=O)NCCc2cn[nH]c2)cn(Cc2cccc(C)c2F)c1=O [Example 23, N^5-(2-(1H-Pyrazol-4-yl)ethyl)-1-(2-fluoro-3-methylbenzyl)-N^3-methyl-2-oxo-1,2-dihydropyridine-3,5-dicarboxamide] yielded an IC50 of 100 to 1000 nM. CNC(=O)c1cc(C(=O)NCCc2c[nH]cn2)cn(Cc2cccc3[nH]ccc23)c1=O [Example 24, N^5-(2-(1H-Imidazol-4-yl)ethyl)-1-((1H-indol-4-yl)methyl)-N^3-methyl-2-oxo-1,2-dihydropyridine-3,5-dicarboxamide] was tested, and the IC50 was ≤ 100 nM. For CCNC(=O)c1cc(C(=O)NC)c(=O)n(Cc2cccc3[nH]ccc23)c1 [Example 25, 1-((1H-Indol-4-yl)methyl)-N^5-ethyl-N^3-methyl-2-oxo-1,2-dihydropyridine-3,5-dicarboxamide], the IC50 was ≤ 100 nM. With CNC(=O)c1cc(C(=O)NCCc2cn[nH]c2)cn(Cc2cccc3[nH]ccc23)c1=O [Example 26, 1-((1H-Indol-4-yl)methyl)-N^5-(2-(1H-pyrazol-4-yl)ethyl)-N^3-methyl-2-oxo-1,2-dihydropyridine-3,5-dicarboxamide] the IC50 was ≤ 100 nM. In the case of CNC(=O)c1cc(C(=O)NCC(C)OC)cn(Cc2ccccc2)c1=O (stereo not shown) [Example 29, 1-Benzyl-N^5-(2-methoxypropyl)-N^3-methyl-2-oxo-1,2-dihydropyridine-3,5-dicarboxamide], the IC50 is reported as 1000 to 100000 nM. CNC(=O)c1cc(C(=O)NCC(C)O)cn(Cc2ccccc2)c1=O (stereo not shown) [Example 31, 1-Benzyl-N^5-(2-hydroxypropyl)-N^3-methyl-2-oxo-1,2-dihydropyridine-3,5-dicarboxamide] gave an IC50 of 1000 to 100000 nM. CNC(=O)c1cc(C(=O)NCCCO)cn(Cc2ccccc2)c1=O [Example 32, 1-Benzyl-N^5-(3-hydroxypropyl)-N^3-methyl-2-oxo-1,2-dihydropyridine-3,5-dicarboxamide] showed an IC50 of 100 to 1000 nM. Work on CNC(=O)c1cc(C(=O)NCCC(C)N(C)C)cn(Cc2ccccc2)c1=O (stereo not shown) [Example 33, 1-Benzyl-N^5-(3-(dimethylamino)butyl)-N^3-methyl-2-oxo-1,2-dihydropyridine-3,5-dicarboxamide] yielded an IC50 of 100 to 1000 nM. With CNC(=O)c1cc(C(=O)NCCc2ccncc2)cn(Cc2ccccc2)c1=O [Example 34, 1-Benyl-N^3-methyl-2-oxo-N^5-(2-(pyridin-4-yl)ethyl)-1,2-dihydropyridine-3,5-dicarboxamide] the IC50 was 100 to 1000 nM.
